Laboratory results taken from patent US9179678B2, “Substituted [1,2,4]triazoles and substituted tetrazoles as herbicides” (SYNGENTA LIMITED, priority 2012, dated 2015).

Legend:
Assay type in all cases: in vivo
[1] = system: Echinochloa crus-galli (ECHCG); test: Post-emergence glasshouse herbicide test; conditions: POST Application, 1000 g/h, after 13 days
Description: (§1) Seeds of a variety of test species are sown in standard soil in pots (Alopecurus myosuroides (ALOMY), Setaria faberi (SETFA), Echinochloa crus-galli (ECHCG), Solanum nigrum (SOLNI), Amaranthus retoflexus (AMARE), Ipomoea hederacea (IPOHE)). After cultivation for one day (pre-emergence) or after 8 days cultivation (post-emergence) under controlled conditions in a glasshouse (at 24/16° C., day/night; 14 hours light; 65% humidity), the plants are sprayed with an aqueous spray solution derived from the formulation of the technical active ingredient in acetone/water (50:50) solution containing 0.5% Tween 20 (polyoxyethelyene sorbitan monolaurate, CAS RN 9005-64-5). Compounds ae applied at 1000 g/h. The test plants are then grown in a glasshouse under controlled conditions in a glasshouse (at 24/16° C., day/night; 14 hours light; 65% humidity) and watered twice daily. After 13 days for pre and post-emergence, the test is evaluated for the percentage damage caused to the plant. The biological activities are shown in the following table on a five point scale (5=80-100%; 4=60-79%; 3=40-59%; 2=20-39%; 1=0-19%).

[2] = system: Ipomoea hederacea (IPOHE); test: Post-emergence glasshouse herbicide test; conditions: POST Application, 1000 g/h, after 13 days
Description: as §1

[3] = system: Solanum nigrum (SOLNI); test: Post-emergence glasshouse herbicide test; conditions: POST Application, 1000 g/h, after 13 days
Description: as §1

[4] = system: Alopecurus myosuroides (ALOMY); test: Post-emergence glasshouse herbicide test; conditions: POST Application, 1000 g/h, after 13 days
Description: as §1

[5] = system: Amaranthus retoflexus (AMARE); test: Post-emergence glasshouse herbicide test; conditions: POST Application, 1000 g/h, after 13 days
Description: as §1

[6] = system: Echinochloa crus-galli (ECHCG); test: Pre-emergence glasshouse herbicide test; conditions: PRE Application, 1000 g/h, after 13 days
Description: as §1

[7] = system: Setaria faberi (SETFA); test: Pre-emergence glasshouse herbicide test; conditions: PRE Application, 1000 g/h, after 13 days
Description: as §1

[8] = system: Ipomoea hederacea (IPOHE); test: Pre-emergence glasshouse herbicide test; conditions: PRE Application, 1000 g/h, after 13 days
Description: as §1

[9] = system: Solanum nigrum (SOLNI); test: Pre-emergence glasshouse herbicide test; conditions: PRE Application, 1000 g/h, after 13 days
Description: as §1

[10] = system: Alopecurus myosuroides (ALOMY); test: Pre-emergence glasshouse herbicide test; conditions: PRE Application, 1000 g/h, after 13 days
Description: as §1

[11] = system: Amaranthus retoflexus (AMARE); test: Pre-emergence glasshouse herbicide test; conditions: PRE Application, 1000 g/h, after 13 days
Description: as §1

[12] = system: Setaria faberi (SETFA); test: Post-emergence glasshouse herbicide test; conditions: POST Application, 1000 g/h, after 13 days
Description: as §1, with “Compounds ae applied at 1000 g/h.” left out

CCOc1cccc(-n2c(=O)c(C(=O)Nc3nnnn3C)nc3ccccc32)c1 [Compound 5.014]
percentage damage caused to the plant, ECHCG [1]: 4 (4=60-79%) | percentage damage caused to the plant, IPOHE [2]: 5 (5=80-100%) | percentage damage caused to the plant, SOLNI [3]: 5 (5=80-100%) | percentage damage caused to the plant, ALOMY [4]: 3 (3=40-59%) | percentage damage caused to the plant, AMARE [5]: 5 (5=80-100%) | percentage damage caused to the plant, ECHCG [6]: 2 (2=20-39%) | percentage damage caused to the plant, SETFA [7]: 5 (5=80-100%) | percentage damage caused to the plant, IPOHE [8]: 4 (4=60-79%) | percentage damage caused to the plant, SOLNI [9]: 5 (5=80-100%) | percentage damage caused to the plant, ALOMY [10]: 2 (2=20-39%) | percentage damage caused to the plant, AMARE [11]: 5 (5=80-100%) | percentage damage caused to the plant, SETFA [12]: 5 (5=80-100%)

Cn1nnnc1NC(=O)c1nc2ccccc2n(-c2ccc(Cl)cc2)c1=O [Compound 5.015]
percentage damage caused to the plant, ECHCG [1]: 5 (5=80-100%) | percentage damage caused to the plant, IPOHE [2]: 5 (5=80-100%) | percentage damage caused to the plant, SOLNI [3]: 5 (5=80-100%) | percentage damage caused to the plant, ALOMY [4]: 4 (4=60-79%) | percentage damage caused to the plant, AMARE [5]: 5 (5=80-100%) | percentage damage caused to the plant, ECHCG [6]: 5 (5=80-100%) | percentage damage caused to the plant, SETFA [7]: 5 (5=80-100%) | percentage damage caused to the plant, IPOHE [8]: 5 (5=80-100%) | percentage damage caused to the plant, SOLNI [9]: 5 (5=80-100%) | percentage damage caused to the plant, ALOMY [10]: 2 (2=20-39%) | percentage damage caused to the plant, AMARE [11]: 5 (5=80-100%) | percentage damage caused to the plant, SETFA [12]: 5 (5=80-100%)

Cn1nnnc1NC(=O)c1nc2ccccc2n(-c2cccc(Cl)c2)c1=O [Compound 5.016]
percentage damage caused to the plant, ECHCG [1]: 5 (5=80-100%) | percentage damage caused to the plant, IPOHE [2]: 5 (5=80-100%) | percentage damage caused to the plant, SOLNI [3]: 5 (5=80-100%) | percentage damage caused to the plant, ALOMY [4]: 5 (5=80-100%) | percentage damage caused to the plant, AMARE [5]: 5 (5=80-100%) | percentage damage caused to the plant, ECHCG [6]: 5 (5=80-100%) | percentage damage caused to the plant, SETFA [7]: 5 (5=80-100%) | percentage damage caused to the plant, IPOHE [8]: 5 (5=80-100%) | percentage damage caused to the plant, SOLNI [9]: 5 (5=80-100%) | percentage damage caused to the plant, ALOMY [10]: 4 (4=60-79%) | percentage damage caused to the plant, AMARE [11]: 5 (5=80-100%) | percentage damage caused to the plant, SETFA [12]: 5 (5=80-100%)

Cn1nnnc1NC(=O)c1nc2ccccc2n(-c2cc(Cl)cc(Cl)c2)c1=O [Compound 5.017]
percentage damage caused to the plant, ECHCG [1]: 2 (2=20-39%) | percentage damage caused to the plant, IPOHE [2]: 4 (4=60-79%) | percentage damage caused to the plant, SOLNI [3]: 5 (5=80-100%) | percentage damage caused to the plant, ALOMY [4]: 5 (5=80-100%) | percentage damage caused to the plant, AMARE [5]: 5 (5=80-100%) | percentage damage caused to the plant, ECHCG [6]: 1 (1=0-19%) | percentage damage caused to the plant, SETFA [7]: 5 (5=80-100%) | percentage damage caused to the plant, IPOHE [8]: 4 (4=60-79%) | percentage damage caused to the plant, SOLNI [9]: 5 (5=80-100%) | percentage damage caused to the plant, ALOMY [10]: 4 (4=60-79%) | percentage damage caused to the plant, AMARE [11]: 5 (5=80-100%) | percentage damage caused to the plant, SETFA [12]: 5 (5=80-100%)

Cn1nnnc1NC(=O)c1nc2ccccc2n(-c2cccc(F)c2)c1=O [Compound 5.018]
percentage damage caused to the plant, ECHCG [1]: 5 (5=80-100%) | percentage damage caused to the plant, IPOHE [2]: 5 (5=80-100%) | percentage damage caused to the plant, SOLNI [3]: 5 (5=80-100%) | percentage damage caused to the plant, ALOMY [4]: 5 (5=80-100%) | percentage damage caused to the plant, AMARE [5]: 5 (5=80-100%) | percentage damage caused to the plant, ECHCG [6]: 5 (5=80-100%) | percentage damage caused to the plant, SETFA [7]: 5 (5=80-100%) | percentage damage caused to the plant, IPOHE [8]: 5 (5=80-100%) | percentage damage caused to the plant, SOLNI [9]: 5 (5=80-100%) | percentage damage caused to the plant, ALOMY [10]: 5 (5=80-100%) | percentage damage caused to the plant, AMARE [11]: 5 (5=80-100%) | percentage damage caused to the plant, SETFA [12]: 5 (5=80-100%)

Cn1nnnc1NC(=O)c1nc2ccccc2n(-c2ccc(C(F)(F)F)cc2)c1=O [Compound 5.019]
percentage damage caused to the plant, ECHCG [1]: 5 (5=80-100%) | percentage damage caused to the plant, IPOHE [2]: 5 (5=80-100%) | percentage damage caused to the plant, SOLNI [3]: 5 (5=80-100%) | percentage damage caused to the plant, ALOMY [4]: 3 (3=40-59%) | percentage damage caused to the plant, AMARE [5]: 5 (5=80-100%) | percentage damage caused to the plant, ECHCG [6]: 5 (5=80-100%) | percentage damage caused to the plant, SETFA [7]: 5 (5=80-100%) | percentage damage caused to the plant, IPOHE [8]: 5 (5=80-100%) | percentage damage caused to the plant, SOLNI [9]: 5 (5=80-100%) | percentage damage caused to the plant, ALOMY [10]: 4 (4=60-79%) | percentage damage caused to the plant, AMARE [11]: 5 (5=80-100%) | percentage damage caused to the plant, SETFA [12]: 5 (5=80-100%)

CSc1ccc(-n2c(=O)c(C(=O)Nc3nnnn3C)nc3ccccc32)cc1 [Compound 5.020]
percentage damage caused to the plant, ECHCG [1]: 5 (5=80-100%) | percentage damage caused to the plant, IPOHE [2]: 5 (5=80-100%) | percentage damage caused to the plant, SOLNI [3]: 5 (5=80-100%) | percentage damage caused to the plant, ALOMY [4]: 5 (5=80-100%) | percentage damage caused to the plant, AMARE [5]: 5 (5=80-100%) | percentage damage caused to the plant, ECHCG [6]: 3 (3=40-59%) | percentage damage caused to the plant, SETFA [7]: 1 (1=0-19%) | percentage damage caused to the plant, IPOHE [8]: 3 (3=40-59%) | percentage damage caused to the plant, SOLNI [9]: 5 (5=80-100%) | percentage damage caused to the plant, ALOMY [10]: 1 (1=0-19%) | percentage damage caused to the plant, AMARE [11]: 5 (5=80-100%) | percentage damage caused to the plant, SETFA [12]: 2 (2=20-39%)

Cn1nnnc1NC(=O)c1nc2ccccc2n(-c2cccc(C#N)c2)c1=O [Compound 5.021]
percentage damage caused to the plant, ECHCG [1]: 2 (2=20-39%) | percentage damage caused to the plant, IPOHE [2]: 5 (5=80-100%) | percentage damage caused to the plant, SOLNI [3]: 5 (5=80-100%) | percentage damage caused to the plant, ALOMY [4]: 4 (4=60-79%) | percentage damage caused to the plant, AMARE [5]: 5 (5=80-100%) | percentage damage caused to the plant, ECHCG [6]: 5 (5=80-100%) | percentage damage caused to the plant, SETFA [7]: 5 (5=80-100%) | percentage damage caused to the plant, IPOHE [8]: 5 (5=80-100%) | percentage damage caused to the plant, SOLNI [9]: 5 (5=80-100%) | percentage damage caused to the plant, ALOMY [10]: 5 (5=80-100%) | percentage damage caused to the plant, AMARE [11]: 5 (5=80-100%) | percentage damage caused to the plant, SETFA [12]: 5 (5=80-100%)

Cn1nnnc1NC(=O)c1nc2ccccc2n(-c2ccc([N+](=O)[O-])cc2)c1=O [Compound 5.022]
percentage damage caused to the plant, ECHCG [1]: 4 (4=60-79%) | percentage damage caused to the plant, IPOHE [2]: 5 (5=80-100%) | percentage damage caused to the plant, SOLNI [3]: 5 (5=80-100%) | percentage damage caused to the plant, ALOMY [4]: 2 (2=20-39%) | percentage damage caused to the plant, AMARE [5]: 5 (5=80-100%) | percentage damage caused to the plant, ECHCG [6]: 5 (5=80-100%) | percentage damage caused to the plant, SETFA [7]: 5 (5=80-100%) | percentage damage caused to the plant, IPOHE [8]: 4 (4=60-79%) | percentage damage caused to the plant, SOLNI [9]: 5 (5=80-100%) | percentage damage caused to the plant, ALOMY [10]: 3 (3=40-59%) | percentage damage caused to the plant, AMARE [11]: 5 (5=80-100%) | percentage damage caused to the plant, SETFA [12]: 4 (4=60-79%)
